Laboratory results from publication PMC9822021, “Biological Activity of Amidino-Substituted Imidazo [4,5-b]pyridines” (Molecules, 2022).

Key:
[1] = in vitro; details: dog
[2] = tested on: HSV-1 KOS; assay: Antiviral CPE reduction assay; type: cell-based, herpes simplex virus-1; details: Human alphaherpesvirus 1
[3] = tested on: HCoV NL63; assay: Antiviral CPE reduction assay; type: cell-based; details: Human coronavirus NL63, Huh-7, Huh7 cells
[4] = tested on: Influenza H3N2 (A/HK/7/87); assay: Antiviral CPE reduction assay; type: cell-based; details: Influenza A virus, MDCK cells
[5] = tested on: YFV 17D; assay: microbe, parasite or virus in culture; type: cell-based; details: Yellow fever virus, Huh-7, read-out: EC50 YFV 17D Huh7
[6] = tested on: Influenza H1N1 (A/Ned/378/05); assay: Antiviral CPE reduction assay; type: cell-based; details: Influenza A virus, MDCK cells
[7] = tested on: Influenza B (B/Ned/537/05); assay: Antiviral CPE reduction assay; type: cell-based; details: Influenza B virus, MDCK cells
[8] = tested on: RSV A Long; assay: Antiviral CPE reduction assay; type: cell-based, respiratory syncytial virus A; details: human respiratory syncytial virus, HEL 299 cells
[9] = tested on: HCoV OC43; assay: Antiviral CPE reduction assay; type: cell-based, human coronavirus OC43; details: Betacoronavirus 1, OC43, HEL 299 cells
[10] = tested on: Zika mr766; assay: Antiviral CPE reduction assay; type: cell-based; details: Zika virus, Huh-7, Huh7 cells
[11] = tested on: HCoV 229E; assay: Antiviral CPE reduction assay; type: cell-based; details: Human coronavirus 229E, HEL 299 cells
[12] = tested on: S. aureus ATCC 29213; assay: Antibacterial activity in vitro, broth microdilution; type: cell-based; details: Staphylococcus aureus, ATCC29213; broth microdilution (CLSI), 16–24 h at 37 °C
Description: (§1) Synthesized compounds were prepared as 10 mM DMSO solutions and tested in a final concentration range of 100–0.2 µM [34].
(§2) Broth microdilution testing was performed according to CLSI (Clinical Laboratory Standards Institute) guidelines. MIC (minimal inhibitory concentration) values were defined as the last tested concentration of the compound at which there was no visible growth of bacteria. Inoculums for each microorganism were prepared using the direct colony suspension method, where broth solutions that achieved turbidity equivalent to 0.5 McFarland standard were additionally diluted 100× with Ca-adjusted MH media (Becton Dickinson).

[13] = tested on: S. Pneumoniae ATCC 49619; assay: as above; type: cell-based; details: Streptococcus pneumoniae, ATCC49619; broth microdilution (CLSI), 16–24 h at 37 °C
Description: as §1, §2

[14] = tested on: E. coli ATCC 25922; assay: as above; type: cell-based; details: Escherichia coli, ATCC25922; broth microdilution (CLSI), 16–24 h at 37 °C
Description: as §1, §2

[15] = tested on: E. coli Efflux Del; assay: microbe, parasite or virus in culture; type: cell-based; details: Escherichia coli, read-out: MIC E. coli Efflux Del
Description: as §1, §2

[16] = tested on: Sindbis; assay: Antiviral CPE reduction assay; type: cell-based; details: Sindbis virus, Huh-7, Huh7 cells
[17] = in vitro; details: human
[18] = in vitro; details: human; remark: listed apart in the source

O=c1[nH]c(=O)n([C@H]2C[C@H](O)[C@@H](CO)O2)cc1/C=C/Br [BVDU, brivudine, reference compound]
CC50 [1]: > 100 µM | EC50 [2]: 0.05 µM

NC(=O)c1ncn([C@@H]2O[C@H](CO)[C@@H](O)[C@H]2O)n1 [Ribavirin, ribavirin, reference compound]
EC50 [3]: > 250 µM | EC50 [4]: 4 ± 2.7 µM | EC50 [5]: > 250 µM | EC50 [6]: 10.5 ± 3.8 µM | EC50 [7]: 2.8 ± 1.8 µM | CC50 [1]: 80.2 ± 18.6 µM | EC50 ([8]; HEL 299, CPE reduction): 10.8 ± 2.1 µM | EC50 [9]: 170 µM | EC50 [10]: > 250 µM | EC50 [11]: 82.6 µM

Brc1cnc2nc(-c3ccccc3)[nH]c2c1 [Compound 7, 6-Bromo-2-phenyl-1H-imidazo[4,5-b]pyridine]
EC50 [3]: > 100 µM | EC50 [4]: > 100 µM | melting point: > 300 °C | MIC [12]: > 64 µM | MIC [13]: > 64 µM | MIC [14]: > 64 µM | EC50 [5]: > 100 µM | EC50 [6]: > 100 µM | EC50 [7]: > 100 µM | MIC [15]: > 64 µM | EC50 [16]: > 100 µM | CC50 [1]: > 100 µM | EC50 ([8]; HEL 299, CPE reduction): 21 ± 5.9 µM | EC50 [9]: > 100 µM | CC50 [17]: > 100 µM | CC50 [18]: > 100 µM | EC50 [2]: > 100 µM | EC50 [10]: > 100 µM | EC50 [11]: > 100 µM

CCC(CC)COC(=O)[C@H](C)N[P@](=O)(OC[C@H]1O[C@@](C#N)(c2ccc3c(N)ncnn23)[C@H](O)[C@@H]1O)Oc1ccccc1 [Remdesivir, remdesivir, reference compound]
EC50 [3]: 0.03 µM | EC50 [5]: 6.2 µM | EC50 [16]: > 10 µM | EC50 ([8]; CPE reduction): 0.03 ± 0.01 µM | EC50 [9]: 0.06 µM | CC50 [17]: > 10 µM | CC50 [18]: > 10 µM | EC50 [10]: 0.7 µM | EC50 [11]: 0.06 µM
